Test results as given in ChEMBL document CHEMBL4602669, “Bishomoscalarane Sesterterpenoids from the Sponge Dysidea granulosa Collected in the South China Sea” (2020).

What was measured:
Assay type in all cases: functional
[1] = system: Bel-7402; test: Antiproliferative activity against human Bel7402 cells by MTT assay
[2] = system: HCT-116; test: Antiproliferative activity against human HCT116 cells by MTT assay
[3] = system: Jurkat; test: Antiproliferative activity against human Jurkat cells by MTT assay
[4] = system: K562; test: Antiproliferative activity against human K562 cells by MTT assay
[5] = system: A549; test: Antiproliferative activity against human A549 cells by MTT assay

Compound | GI50 [1] [µM] | GI50 [2] [µM] | GI50 [3] [µM] | GI50 [4] [µM] | GI50 [5] [µM]
CC(=O)O[C@@H](C)[C@@]1(C)CCC[C@@]2(C)[C@H]1CC[C@]1(C)[C@@H]2C[C@H](OC(=O)CC(C)O)[C@]2(C)C=C(C(C)=O)[C@H](O)C[C@H]21 (stereo partly drawn) | > 30 | > 30 | > 30 | > 30 | > 30
CC(O)CC(=O)O[C@H]1C[C@@H]2[C@@]3(C)CCC[C@@]4(C[C@@H]4C)[C@@H]3CC[C@@]2(C)[C@@H]2C[C@@H](O)C3=C([C@H](O)CC3=O)[C@@]12C (stereo partly drawn) | > 30 | > 30 | > 30 | > 30 | > 30
CCC(=O)O[C@@H](C)[C@@]1(C)CCC[C@@]2(C)[C@H]1CC[C@]1(C)[C@@H]2C[C@H](OC(=O)CC(O)CC)[C@]2(C)C3=C(CC[C@@H]12)[C@H](C)OC3=O (stereo partly drawn) | > 30 | > 30 | > 30 | > 30 | > 30
CC[C@@]1(C)CCC[C@]2(C)[C@H]3C[C@H](OC(=O)CC(C)O)[C@]45C[C@@H](O)[C@H]4C(C(C)=O)=CC[C@H]5[C@]3(C)CC[C@@H]12 (stereo partly drawn) | 14 | 14 |  | 11 | 12
CC(=O)O[C@H]1C[C@@H]2[C@@]3(C)CCC[C@@]4(C[C@@H]4C)[C@@H]3CC[C@@]2(C)[C@@H]2CCC3=C(C(=O)O[C@@H]3C)[C@@]12C | > 30 | > 30 | > 30 | > 30 | > 30
CC[C@@]1(C)CCC[C@]2(C)[C@H]3C[C@H](O)[C@]4(C)C5=C(CC[C@H]4[C@]3(C)CC[C@@H]12)C(=O)C[C@H]5O | > 30 | > 30 | > 30 | > 30 | > 30
CC/C1=C/CO[C@@]2(C)[C@@H](O)C[C@@H]3[C@@]4(C)CCC[C@](C)(CC)[C@@H]4CC[C@@]3(C)[C@@H]2CC1 | > 30 | > 30 | > 30 | > 30 | > 30
CC(=O)C1=C[C@@]2(C)[C@@H](OC(=O)CC(C)O)C[C@H]3[C@@](C)(CC[C@@H]4[C@]3(C)CCC[C@@]43C[C@@H]3C)[C@@H]2C[C@H]1O (stereo partly drawn) | 11 | 6.4 | 13 |  | 8.1
CCC(=O)O[C@@H](C)[C@@]1(C)CCC[C@@]2(C)[C@H]1CC[C@]1(C)[C@@H]2C[C@H](OC(=O)CC(O)CC)[C@]2(C)C3=C(CC[C@@H]12)[C@@H](C)OC3=O (stereo partly drawn) | > 30 | > 30 | > 30 | > 30 | > 30
CC(=O)O[C@H]1C[C@@H]2[C@@]3(C)CCC[C@@]4(C[C@@H]4C)[C@@H]3CC[C@@]2(C)[C@@H]2CCC3=C(C(=O)O[C@H]3C)[C@@]12C | > 30 | > 30 | > 30 | > 30 | > 30
CC[C@@]1(C)CCC[C@]2(C)[C@H]3C[C@H](OC(=O)CC(C)O)[C@]4(C)C=C(C(C)=O)[C@H](O)C[C@H]4[C@]3(C)CC[C@@H]12 (stereo partly drawn) | > 30 | > 30 | > 30 | > 30 | > 30
CCC(O)CC(=O)O[C@H]1C[C@@H]2[C@@]3(C)CCC[C@](C)([C@H](C)OC(C)=O)[C@@H]3CC[C@@]2(C)[C@@H]2C[C@H](O)C(C(C)=O)=C[C@@]12C (stereo partly drawn) | > 30 | > 30 | > 30 | > 30 | > 30
CC(=O)OC(C)CC(=O)O[C@H]1C[C@@H]2[C@@]3(C)CCC[C@](C)([C@H](C)OC(C)=O)[C@@H]3CC[C@@]2(C)[C@@H]2C[C@@H](O)C(C(C)=O)=C[C@@]12C (stereo partly drawn) | > 30 | > 30 | > 30 | > 30 | > 30
CCC(=O)O[C@H]1C[C@@H]2[C@@]3(C)CCC[C@@]4(C[C@@H]4C)[C@@H]3CC[C@@]2(C)[C@@H]2CCC3=C(C(=O)O[C@H]3C)[C@@]12C | > 30 | > 30 | > 30 | > 30 | > 30
COc1cccc2c1C(=O)c1c(O)c3c(c(O)c1C2=O)C[C@@](O)(C(=O)CO)C[C@@H]3O[C@H]1C[C@H](N)[C@H](O)[C@H](C)O1 [DOXORUBICIN] | < 1 | < 1 | < 1 | < 1 | < 1
